Data taken from the supplement of paper PMC6045584.

Columns and labels:
Test in all cases: area under dose-response curve of surviving fraction (unscaled, Aref=0) (surviving fraction x log10(nM)); higher = more resistant
Conditions in all cases: exposure time: 5 days; dose range 0.5-1000 nM
MK-1775 = compound: C=CCn1c(=O)c2cnc(Nc3ccc(N4CCN(C)CC4)cc3)nc2n1-c1cccc(C(C)(C)O)n1 [MK-1775]
Procedure, shortened: (§1)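 Tumour cell lines in 384-well plates were exposed for five days to eight inhibitor concentrations from 0.5 to 1000 nM. Viability was read by CellTiter-Glo luminescence, normalised to DMSO-only wells, in three screens per line. Dose-response survival curves were fitted to surviving fractions by 3-parameter logistic regression in the drc R package. Area under the curve is the unscaled activity area (Aref = 0) over log10 dose.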

AFIMOXIFENE = compound: CC/C(=C(\c1ccc(O)cc1)c1ccc(OCCN(C)C)cc1)c1ccccc1 [AFIMOXIFENE]
Procedure, shortened: as §1

[1] = compound: CCc1cc(Nc2nccc(-c3c(-c4ccc(OC)c(C(=O)Nc5c(F)cccc5F)c4)nc4ccccn34)n2)c(OC)cc1N1CCC(N2CCN(S(C)(=O)=O)CC2)CC1
Procedure, shortened: as §1

CABOZANTINIB = compound: COc1cc2nccc(Oc3ccc(NC(=O)C4(C(=O)Nc5ccc(F)cc5)CC4)cc3)c2cc1OC [CABOZANTINIB]
Procedure, shortened: as §1

LENVATINIB = compound: COc1cc2nccc(Oc3ccc(NC(=O)NC4CC4)c(Cl)c3)c2cc1C(N)=O [LENVATINIB]
Procedure, shortened: as §1

[2] = compound: COc1ccc(-c2cc3c(C)nc(N)nc3n([C@H]3CC[C@H](OCCO)CC3)c2=O)cn1
Procedure, shortened: as §1

[3] = compound: C[C@@H]1CN(CC(=O)Nc2ccc3c(c2)Cc2cccc(-c4cc(=O)cc(N5CCOCC5)o4)c2S3)C[C@H](C)O1
Procedure, shortened: as §1

[4] = compound: C[C@H](CN(C)C)Oc1nc(Nc2cc3cccc(Cl)c3cn2)cnc1C#N
Procedure, shortened: as §1

BLEOMYCIN = compound: Cc1c(N)nc([C@H](CC(N)=O)NC[C@H](N)C(N)=O)nc1C(=O)N[C@H](C(=O)N[C@H](C)[C@@H](O)[C@H](C)C(=O)N[C@H](C(=O)NCCc1nc(-c2nc(C(=O)NCCC[S+](C)C)cs2)cs1)[C@@H](C)O)[C@@H](OC1OC(CO)C(O)C(O)C1OC1OC(CO)C(O)C(OC(N)=O)C1O)c1cnc[nH]1 [BLEOMYCIN]
Procedure, shortened: as §1

IMATINIB = compound: Cc1ccc(NC(=O)c2ccc(CN3CCN(C)CC3)cc2)cc1Nc1nccc(-c2cccnc2)n1 [IMATINIB]
Procedure, shortened: as §1

NILOTINIB = compound: Cc1cn(-c2cc(NC(=O)c3ccc(C)c(Nc4nccc(-c5cccnc5)n4)c3)cc(C(F)(F)F)c2)cn1 [NILOTINIB]
Procedure, shortened: as §1

BEZ-235 = compound: Cn1c(=O)n(-c2ccc(C(C)(C)C#N)cc2)c2c3cc(-c4cnc5ccccc5c4)ccc3ncc21 [BEZ-235]
Procedure, shortened: as §1

BMN-673 = compound: Cn1ncnc1[C@H]1c2n[nH]c(=O)c3cc(F)cc(c23)N[C@@H]1c1ccc(F)cc1 [BMN-673]
Procedure, shortened: as §1

VORINOSTAT = compound: O=C(CCCCCCC(=O)Nc1ccccc1)NO [VORINOSTAT]
Procedure, shortened: as §1

VP229 BREAST
area under dose-response curve (MK-1775): 2.75
area under dose-response curve (AFIMOXIFENE): 3.71
area under dose-response curve [1]: 3.66
area under dose-response curve (CABOZANTINIB): 3.43
area under dose-response curve (LENVATINIB): 4.16
area under dose-response curve [2]: 2.08
area under dose-response curve [3]: 3.29
area under dose-response curve [4]: 3.45
area under dose-response curve (BLEOMYCIN): 2.61
area under dose-response curve (IMATINIB): 4.06
area under dose-response curve (NILOTINIB): 3.75
area under dose-response curve (BEZ-235): 2.64
area under dose-response curve (BMN-673): 3.22
area under dose-response curve (VORINOSTAT): 3.08
